# According to patent US20250177408A1, “INHIBITOR OF INTERACTION BETWEEN YAP/TAZ AND TEAD, PREPARATION THEREOF, PHARMACEUTICAL COMPOSITION THEREOF AND USE THEREOF” (ETERN BIOPHARMA (SHANGHAI) CO., LTD., priority 2022, published 2025):
# Biological target: YAP-TEAD protein interaction (His-TEAD1 (209-426) protein, Bio-YAP peptide (60-100)) (Homo sapiens, UniProt P28347)
# Assay: YAP-TEAD protein interaction HTRF experiment
# Type: binding
# Conditions: His-TEAD1 (209-426) 10 nM, Bio-YAP peptide 50 nM, read-out: Activity of each compound in blocking YAP-TEAD protein interaction (grades of IC50 values)
# Description: In this example, the YAP-TEAD protein interaction HTRF experiment was used to detect the activity of each compound in blocking the YAP-TEAD protein interaction.
# The experiment was carried out according to the following operation steps:
# Step 1: His-TEAD1 (209-426) protein was added to a 384-well detection white plate to a final concentration of 10 nM, and buffer was used as the background signal well. The compounds to be tested were subjected to 3-fold dilution and a total of 10 concentration gradients were set up, and each diluted solution was mixed well. A certain volume of the compound to be tested was added to each well separately, 2 replicates were set for each concentration, and the final concentration of DMSO was controlled at 1%. Incubation was carried out at room temperature for 20 minutes. The amino acid sequence of TAED1 (209-426) used in this step is shown in SEQ ID NO: 1:
# After mixing evenly, the mixture was incubated at room temperature for 10 minutes.
# Step 3: Anti-His-Eu cryptate gold and streptavidin-XL665 were diluted according to the instructions and mixed in equal proportions. A certain volume of the detection reagent was added to the well, and the mixture was incubated at room temperature for 1 hour.
# Step 4: The signal was detected using an Envision (Perkin Elmer) microplate reader at an excitation wavelength of 320 nm and emission wavelengths of 665 nm and 620 nm.
# Step 5: The signal was calculated based on the ratio of Em665/Em620*10000.
# The inhibition percentage (%) was calculated using the following formula: […]
# The half-maximal inhibitory concentration (IC50) values were calculated using GraphPad Prism software.
# YAP-TEAD protein interaction (His-TEAD1 (209-426) protein, Bio-YAP peptide (60-100)), sequence (P28347 209-426): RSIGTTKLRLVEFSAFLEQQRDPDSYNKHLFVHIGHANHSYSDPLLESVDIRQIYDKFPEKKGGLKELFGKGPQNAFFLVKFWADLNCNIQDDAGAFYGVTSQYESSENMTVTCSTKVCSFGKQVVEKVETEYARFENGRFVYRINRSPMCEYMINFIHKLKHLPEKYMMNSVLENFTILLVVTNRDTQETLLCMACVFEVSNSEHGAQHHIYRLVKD
row,IC50,SMILES
1,> 5000 nM,"[2H]c1c([2H])c([2H])c([C@]2([C@@H]3CCCN3)Cc3c(cc(F)c(Cl)c3-c3c(C(N)=O)cc4c(c3F)OCc3nn(C)cc3-4)O2)c([2H])c1[2H] (atropisomer, axis not shown) [Compound 117, (S)-7-((S)-5-Chloro-6-fluoro-2-(phenyl-d5)-2-((S)-pyrrolidin-2-yl)-2,3-dihydrobenzofuran-4-yl)-6-fluoro-2-methyl-2,4-dihydrochromeno[3,4-c]pyrazole-8-carboxamide]"
2,< 50 nM,"CNC(=O)c1cc2c(c(F)c1-c1c(Cl)c(F)cc3c1C[C@](c1ccccc1)([C@@H]1CCCN1)O3)[C@@H](O)CC2 (atropisomer, axis not shown) [Compound I-59, (1S,6S)-6-((S)-5-Chloro-6-fluoro-2-phenyl-2-((S)-pyrrolidin-2-yl)-2,3-dihydrobenzofuran-4-yl)-7-fluoro-1-hydroxy-N-methyl-2,3-dihydro-1H-indene-5-carboxamide]"
3,< 50 nM,"N#CCC1Cc2cc(C(N)=O)c(-c3c(Cl)c(F)cc4c3C[C@](c3ccccc3)([C@@H]3CCCN3)O4)c(F)c2O1 (stereo partly drawn) [Compound I-55, (2S)-5-Chloro-2′-(cyanomethyl)-6,7′-difluoro-2-phenyl-2-((S)-pyrrolidin-2-yl)-2,2′,3,3′-tetrahydro-[4,6′-bibenzofuran]-5′-carboxamide]"
4,500 to 5000 nM,"Cn1cc2c(n1)COc1c-2cc(C(N)=O)c(-c2c(Cl)c(F)cc3c2C[C@](c2ccccc2)([C@@H]2CC(O)CN2)O3)c1F (stereo partly drawn) [Compound 55, (7S)-7-((2S)-5-Chloro-6-fluoro-2-((2S)-4-hydroxypyrrolidin-2-yl)-2-phenyl-2,3-dihydrobenzofuran-4-yl)-6-fluoro-2-methyl-2,4-dihydrochromeno[3,4-c]pyrazole-8-carboxamide]"
5,< 50 nM,"CNC(=O)c1cc2c(c(F)c1-c1c(Cl)c(F)cc3c1C[C@](c1ccccc1)([C@@H]1CCCN1)O3)OC(CO)CO2 (stereo partly drawn) [Compound I-56, (S)-7-((S)-5-Chloro-6-fluoro-2-phenyl-2-((S)-pyrrolidin-2-yl)-2,3-dihydrobenzofuran-4-yl)-8-fluoro-2-(hydroxymethyl)-N-methyl-2,3-dihydrobenzo[b][1,4] dioxoine-6-carboxamide]"
6,50 to 500 nM,"Cn1cc2c(n1)COc1c-2cc(C(N)=O)c(-c2c(Cl)c(F)cc3c2C[C@](c2ccccc2)([C@@H]2CCCN2)O3)c1F (atropisomer, axis not shown) [Compound 3′, (R)-7-((S)-5-Chloro-6-fluoro-2-phenyl-2-((S)-pyrrolidin-2-yl)-2,3-dihydrobenzofuran-4-yl)-6-fluoro-2-methyl-2,4-dihydrochromeno[3,4-c]pyrazole-8-carboxamide]"
7,< 50 nM,"NC(=O)c1cn2ccnc2c(F)c1-c1c(Cl)c(F)cc2c1C[C@](c1ccccc1)([C@@H]1CCCN1)O2 (atropisomer, axis not shown) [Compound I-11, (S)-7-((S)-5-Chloro-6-fluoro-2-phenyl-2-((S)-pyrrolidin-2-yl)-2,3-dihydrobenzofuran-4-yl)-8-fluoroimidazo[1,2-a]pyridine-6-carboxamide]"
8,50 to 500 nM,"NC(=O)c1cc2c(c(F)c1-c1c(Cl)c(F)cc3c1C[C@](c1ccccc1)([C@@H]1CCCN1)O3)Oc1ncnc(N)c1O2 (atropisomer, axis not shown) [Compound 113, (S)-4-Amino-8-((S)-5-chloro-6-fluoro-2-phenyl-2-((S)-pyrrolidin-2-yl)-2,3-dihydrobenzofuran-4-yl)-9-fluorobenzo[5,6][1,4]dioxo [2,3-d]pyrimidine-7-carboxamide]"
9,50 to 500 nM,"Cc1nnc2n1-c1cc(C(N)=O)c(-c3c(Cl)c(F)cc4c3C[C@](c3ccccc3)([C@@H]3CCCN3)O4)c(F)c1OC2 (atropisomer, axis not shown) [Compound 43, (S)-7-((S)-5-Chloro-6-fluoro-2-phenyl-2-((S)-pyrrolidin-2-yl)-2,3-dihydrobenzofuran-4-yl)-6-fluoro-1-methyl-4H-benzo[b][1,2,4]triazolo[4,3-d][1,4]oxazine-8-carboxamide]"
10,< 50 nM,"NC(=O)c1cc2c(c(F)c1-c1c(Cl)c(F)cc3c1C[C@](c1ccccc1)([C@@H]1CCCN1)O3)OC(CO)CO2 (stereo partly drawn) [Compound I-53, (S)-7-((S)-5-Chloro-6-fluoro-2-phenyl-2-((S)-pyrrolidin-2-yl)-2,3-dihydrobenzofuran-4-yl)-8-fluoro-2-(hydroxymethyl)-2,4-dihydrobenzo[b][1,4] dioxoine-6-carboxamide]"
11,< 50 nM,"NC(=O)c1cc2c(c(F)c1-c1c(Cl)c(F)cc3c1C[C@](c1ccccc1)([C@@H]1CCCN1)O3)Oc1c(cnn(C3COC3)c1=O)O2 (atropisomer, axis not shown) [Compound 145, (S)-8-((S)-5-Chloro-6-fluoro-2-phenyl-2-((S)-pyrrolidin-2-yl)-2,3-dihydrobenzofuran-4-)-9-fluoro-2-(oxetan-3-yl)-1-oxo-1,2-dihydrobenzo[5,6][1,4]dioxo [2,3-d]pyridazine-7-carboxamide]"
12,50 to 500 nM,"CNC(=O)c1cc2c(c(F)c1-c1c(Cl)c(F)cc3c1C[C@](c1ccccc1)([C@@H]1CCCN1)O3)[C@H](O)CC2 (atropisomer, axis not shown) [Compound I-60, (1R,6S)-6-((S)-5-Chloro-6-fluoro-2-phenyl-2-((S)-pyrrolidin-2-yl)-2,3-dihydrobenzofuran-4-yl)-7-fluoro-1-hydroxy-N-methyl-2,3-dihydro-1H-indene-5-carboxamide]"
13,< 50 nM,"CNC[C@@]1(c2ccccc2)Cc2c(cc(F)c(Cl)c2-c2c(C(N)=O)cc3c(ccn3C)c2F)O1 (atropisomer, axis not shown) [Compound I-2, (S)-5-((S)-5-Chloro-6-fluoro-2-((methylamino)methyl)-2-phenyl-2,3-dihydrobenzofuran-4-yl)-4-fluoro-1-methyl-1H-indole-6-carboxamide]"
14,< 50 nM,"CNC(=O)c1cc2c(c(F)c1-c1c(Cl)c(F)cc3c1C[C@](c1ccccc1)([C@@H]1CCCN1)O3)OCCN2 (atropisomer, axis not shown) [Compound I-26, (S)-7-((2S)-5-Chloro-6-fluoro-2-phenyl-2-((S)-pyrrolidin-2-yl)-2,3-dihydrobenzofuran-4-yl)-8-fluoro-N-methyl-3,4-dihydro-2H-benzo[b][1,4]oxazine-6-carboxamide]"
15,< 50 nM,"NC(=O)c1cc2c(c(F)c1-c1c(Cl)c(F)cc3c1C[C@](c1ccccc1)([C@@H]1CCCN1)O3)[C@@H](O)CC2 (atropisomer, axis not shown) [Compound I-57, (1S,6S)-6-((S)-5-Chloro-6-fluoro-2-phenyl-2-((S)-pyrrolidin-2-yl)-2,3-dihydrobenzofuran-4-yl)-7-fluoro-1-hydroxy-2,3-dihydro-1H-indene-5-carboxamide]"
16,< 50 nM,"NC(=O)c1cc2c(c(F)c1-c1c(Cl)c(F)cc3c1C[C@](c1ccccc1)([C@@H]1CCCN1)O3)OCC2 (atropisomer, axis not shown) [Compound I-31, (2S,4S)-5-Chloro-6,7′-difluoro-2-phenyl-2-((S)-pyrrolidin-2-yl)-2,2′,3,3′-tetrahydrofuran-[4,6′-bibenzofuran]-5′-carboxamide]"
17,< 50 nM,"NC(=O)c1cc2c(c(F)c1-c1c(Cl)c(F)cc3c1C[C@](c1ccccc1)([C@@H]1CCCN1)O3)OC(CO)C2 (stereo partly drawn) [Compound I-52, (2S,6′S)-5-Chloro-6,7′-difluoro-2′-(hydroxymethyl)-2-phenyl-2-((S)-pyrrolidin-2-yl)-2,2′,3,3′-tetrahydro-[4,6′-bibenzofuran]-5′-carboxamide]"
18,50 to 500 nM,"NC(=O)c1cc2c(c(F)c1-c1c(Cl)c(F)cc3c1C[C@](c1ccccc1)([C@@H]1CCCN1)O3)OCCO2 [Compound 1′, 7-((2S,4R)-5-Chloro-6-fluoro-2-phenyl-2-((S)-pyrrolidin-2-yl)-2,3-dihydrobenzofuran-4-yl)-8-fluoro-2,3-dihydrobenzo[b][1,4]dioxine-6-carboxamide]"
19,< 50 nM,"NC(=O)c1cc2c(c(F)c1-c1c(Cl)c(F)cc3c1C[C@](c1ccccc1)([C@@H]1CCCN1)O3)OCCOC2 (atropisomer, axis not shown) [Compound I-54, (S)-8-((S)-5-Chloro-6-fluoro-2-phenyl-2-((S)-pyrrolidin-2-yl)-2,3-dihydrobenzofuran-4-yl)-9-fluoro-2,3-trihydro-5H-benzo[e][1,4]dioxa-7-carboxamide]"
20,50 to 500 nM,"NC(=O)c1cc2c(c(F)c1-c1c(Cl)c(F)cc3c1C[C@](c1ccccc1)([C@@H]1CCCN1)O3)[C@H](O)CC2 (atropisomer, axis not shown) [Compound I-58, (1R,6S)-6-((S)-5-Chloro-6-fluoro-2-phenyl-2-((S)-pyrrolidin-2-yl)-2,3-dihydrobenzofuran-4-yl)-7-fluoro-1-hydroxy-2,3-dihydro-1H-indene-5-carboxamide]"
